{"source": "ChEMBL document CHEMBL1201862", "about": "“PubChem BioAssay data set” (2004)", "key": {"Cytochrome P450 3A4": {"target": "Cytochrome P450 3A4 (Homo sapiens, UniProt P08684)", "sequence (P08684 whole entry)": "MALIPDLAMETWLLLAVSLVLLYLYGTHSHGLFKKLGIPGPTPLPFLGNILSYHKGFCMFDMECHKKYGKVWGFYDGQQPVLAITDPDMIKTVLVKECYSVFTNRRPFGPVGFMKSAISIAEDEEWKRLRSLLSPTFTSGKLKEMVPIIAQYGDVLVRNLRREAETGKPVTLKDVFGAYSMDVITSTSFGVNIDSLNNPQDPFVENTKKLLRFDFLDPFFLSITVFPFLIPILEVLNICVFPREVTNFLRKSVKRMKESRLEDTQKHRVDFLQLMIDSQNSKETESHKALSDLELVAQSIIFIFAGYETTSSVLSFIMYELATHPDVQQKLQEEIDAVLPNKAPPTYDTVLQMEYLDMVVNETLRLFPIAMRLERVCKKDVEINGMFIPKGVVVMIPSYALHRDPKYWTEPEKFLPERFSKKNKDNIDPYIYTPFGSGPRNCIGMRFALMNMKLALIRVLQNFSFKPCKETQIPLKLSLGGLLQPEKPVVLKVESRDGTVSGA", "conditions": "Potency"}, "Protein Wnt-3a": {"target": "Protein Wnt-3a (Mus musculus, UniProt P27467)", "sequence (P27467 whole entry)": "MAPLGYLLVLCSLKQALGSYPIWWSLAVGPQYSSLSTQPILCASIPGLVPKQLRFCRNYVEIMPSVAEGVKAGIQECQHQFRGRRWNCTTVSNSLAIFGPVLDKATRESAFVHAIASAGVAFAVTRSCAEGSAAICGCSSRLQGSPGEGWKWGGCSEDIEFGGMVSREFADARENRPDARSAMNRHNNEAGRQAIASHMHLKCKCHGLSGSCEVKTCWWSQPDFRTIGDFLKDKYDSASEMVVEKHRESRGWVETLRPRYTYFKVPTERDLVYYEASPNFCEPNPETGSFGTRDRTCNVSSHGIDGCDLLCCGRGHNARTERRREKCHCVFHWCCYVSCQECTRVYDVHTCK", "assay": "antagonism of Wnt3a pathway luciferase reporter – Wnt-LIGHT cells, luminescence, selectivity assay for Gli-SUFU antagonist project, dose response (AID 651570);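 further: Wnt-LIGHT reporter cells stimulated with conditioned medium from Wnt3a-producing cells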", "format": "functional", "conditions": "read-out: IC50_Mean"}, "[1]": {"assay": "loss of viability in HepG2 cells – cell-based, CellTiter-Glo, cherry-picked, cytotoxicity control for Shn3 inhibitor project, dose response (AID 624134)", "format": "functional"}, "[2]": {"assay": "reduction of Shn3 3'UTR-driven luciferase in osteoblasts – cell-based, Clone20 osteoblasts, firefly luciferase, cherry-picked, dose response (AID 624132)", "format": "functional"}, "INS1": {"system": "INS1", "assay": "INS-1E survival protection against cytokine death – cell-based, luminescence, retest, dose response (AID 449756);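 further: cell death triggered by IL-1 beta plus TNF-alpha plus IFN-gamma mixture; protective hits raise ATP signal compared with cytokine alone wells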", "format": "functional", "conditions": "Rattus norvegicus"}, "[3]": {"target": "T1, COUP transcription factor 2 (Homo sapiens, UniProt P24468)", "T1 sequence (P24468 whole entry)": "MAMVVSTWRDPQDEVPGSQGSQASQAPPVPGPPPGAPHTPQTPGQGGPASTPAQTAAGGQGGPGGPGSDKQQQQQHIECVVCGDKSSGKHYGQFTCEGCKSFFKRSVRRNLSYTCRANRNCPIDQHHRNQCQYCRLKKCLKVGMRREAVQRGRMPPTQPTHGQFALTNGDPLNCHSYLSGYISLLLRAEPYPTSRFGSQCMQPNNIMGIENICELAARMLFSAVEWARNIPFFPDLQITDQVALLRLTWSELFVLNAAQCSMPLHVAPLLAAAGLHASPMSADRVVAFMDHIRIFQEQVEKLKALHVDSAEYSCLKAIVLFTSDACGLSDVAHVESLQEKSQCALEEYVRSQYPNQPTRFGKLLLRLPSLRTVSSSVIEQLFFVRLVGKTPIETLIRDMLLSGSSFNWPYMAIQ", "assay": "Luminescence-based cell-based high throughput dose response assay to identify inhibitors of COUP-TFII (NR2F2).", "format": "functional"}, "[4]": {"assay": "non-specific 3'UTR reporter inhibition in Clone20-Shn3RL – cell-based, Renilla luciferase, cherry-picked, counter-screen for Shn3 inhibitor project, dose response (AID 624133)", "format": "functional"}, "[5]": {"assay": "HEK-293T cell viability reduction – luminescence, B-cell screen hits, cytotoxicity control for BCR NF-kB inhibitor project, dose response (AID 489021);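 further: cells exposed to compound for about 14 hours before viability readout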", "format": "functional, cell-based"}, "[6]": {"assay": "viability loss in Vero cells – cytotoxicity control for Vif-APOBEC3G degradation inhibitor project, dose response (AID 1117358)", "format": "functional", "conditions": "Vero"}, "[7]": {"target": "G-protein coupled receptor 55 (Homo sapiens, UniProt Q9Y2T6)", "sequence (Q9Y2T6 whole entry)": "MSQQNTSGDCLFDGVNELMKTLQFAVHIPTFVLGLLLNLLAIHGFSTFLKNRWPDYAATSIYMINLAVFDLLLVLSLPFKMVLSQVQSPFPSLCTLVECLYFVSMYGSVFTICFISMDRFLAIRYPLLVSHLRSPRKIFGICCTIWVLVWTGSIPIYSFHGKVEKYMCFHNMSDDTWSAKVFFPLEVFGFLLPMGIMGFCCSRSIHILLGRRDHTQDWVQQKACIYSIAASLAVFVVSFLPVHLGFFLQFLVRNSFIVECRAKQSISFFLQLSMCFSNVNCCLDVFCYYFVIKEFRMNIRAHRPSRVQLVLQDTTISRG", "assay": "selective activators of receptor GPR55 – imaging, U2OS cells, beta-arrestin-GFP redistribution, primary screen (AID 1961)", "format": "functional"}, "[8]": {"assay": "DRD fibroblast viability loss – cell-based, non-viral oncogenic, luminescence, dose response (AID 1934)", "format": "functional", "conditions": "Homo sapiens"}, "BJ [9]": {"system": "BJ", "assay": "cells", "format": "functional, cell-based", "conditions": "Homo sapiens"}, "BJ [10]": {"system": "BJ", "assay": "BJ-TERT fibroblast viability loss – cell-based, RAS-independent, luminescence, dose response (AID 1933)", "format": "functional", "conditions": "Homo sapiens"}, "BJ [11]": {"system": "BJ", "assay": "BJ-TERT-LT-ST fibroblast viability loss – cell-based, RAS-independent, luminescence, dose response (AID 1935);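 further: BJ fibroblasts immortalized with TERT plus LT and ST oncogenes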", "format": "functional", "conditions": "Homo sapiens"}, "BJ [12]": {"system": "BJ", "assay": "growth inhibition of engineered Ras-driven BJ cells – cell-based, alamar blue fluorescence, cherrypicked samples, dose response (AID 2631)", "format": "functional", "conditions": "Homo sapiens"}, "Cytochrome P450 2D6": {"target": "Cytochrome P450 2D6 (Homo sapiens, UniProt P10635)", "sequence (P10635 whole entry)": "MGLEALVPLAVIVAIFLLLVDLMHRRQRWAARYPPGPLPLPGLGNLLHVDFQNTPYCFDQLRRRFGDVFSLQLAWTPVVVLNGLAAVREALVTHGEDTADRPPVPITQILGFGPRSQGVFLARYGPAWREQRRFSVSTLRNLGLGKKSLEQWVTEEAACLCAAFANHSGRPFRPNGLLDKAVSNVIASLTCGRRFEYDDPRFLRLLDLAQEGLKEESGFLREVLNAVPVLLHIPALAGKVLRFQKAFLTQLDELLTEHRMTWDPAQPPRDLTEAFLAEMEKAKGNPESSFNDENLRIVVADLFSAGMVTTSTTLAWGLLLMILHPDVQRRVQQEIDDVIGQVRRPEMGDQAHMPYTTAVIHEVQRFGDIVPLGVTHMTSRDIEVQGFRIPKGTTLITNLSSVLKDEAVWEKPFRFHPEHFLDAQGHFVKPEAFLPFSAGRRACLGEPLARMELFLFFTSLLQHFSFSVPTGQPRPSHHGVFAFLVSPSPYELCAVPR"}, "[13]": {"assay": "blockers of bursicon-stimulated LGR2 cAMP reporter – cell-based, HEK293, CRE-luciferase reporter, cherry pick, set 2, dose response (AID 743343);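 further: transfected cells were stimulated with diluted bursicon conditioned medium after compound addition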", "format": "functional"}, "[14]": {"assay": "viability loss in HEK293 cells – cell-based, plate reader, cherry-picked samples, cytotoxicity control, dose response (AID 743446)", "format": "functional"}, "[15]": {"assay": "HIV-1 Vif–A3G interaction blockers – biochemical, TR-FRET, GST-Vif 1-94, biotin-A3G peptide, dose response retest, primary screen (AID 1117319);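 further: TR-FRET signal of purified GST-Vif binding a biotinylated A3G peptide; inhibitors lower the FRET signal by blocking Vif and A3G binding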", "format": "functional"}, "[16]": {"assay": "blockade of melanocortin 4 receptor signaling – cell-based, plate reader, cherry pick, counter-screen for LGR2 antagonist project, dose response (AID 743444);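 further: transfected HEK 293 cells stimulated with alpha-MSH peptide; potency of inhibitors of the alpha-MSH evoked signal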", "format": "functional"}, "[17]": {"assay": "toxicity toward HepG2 liver cells – cell-based, plate reader, cherry-pick, antagonist series, cytotoxicity control, dose response (AID 743416)", "format": "functional"}, "[18]": {"assay": "A549 cell cytotoxicity, dose response, cytotoxicity control, plate reader, cherry-pick, antagonist series (AID 743412)", "format": "functional, cell-based"}, "Leucine aminopeptidase": {"target": "T2, Leucine aminopeptidase (Plasmodium falciparum 3D7, UniProt Q8IL11)", "T2 sequence (Q8IL11 whole entry)": "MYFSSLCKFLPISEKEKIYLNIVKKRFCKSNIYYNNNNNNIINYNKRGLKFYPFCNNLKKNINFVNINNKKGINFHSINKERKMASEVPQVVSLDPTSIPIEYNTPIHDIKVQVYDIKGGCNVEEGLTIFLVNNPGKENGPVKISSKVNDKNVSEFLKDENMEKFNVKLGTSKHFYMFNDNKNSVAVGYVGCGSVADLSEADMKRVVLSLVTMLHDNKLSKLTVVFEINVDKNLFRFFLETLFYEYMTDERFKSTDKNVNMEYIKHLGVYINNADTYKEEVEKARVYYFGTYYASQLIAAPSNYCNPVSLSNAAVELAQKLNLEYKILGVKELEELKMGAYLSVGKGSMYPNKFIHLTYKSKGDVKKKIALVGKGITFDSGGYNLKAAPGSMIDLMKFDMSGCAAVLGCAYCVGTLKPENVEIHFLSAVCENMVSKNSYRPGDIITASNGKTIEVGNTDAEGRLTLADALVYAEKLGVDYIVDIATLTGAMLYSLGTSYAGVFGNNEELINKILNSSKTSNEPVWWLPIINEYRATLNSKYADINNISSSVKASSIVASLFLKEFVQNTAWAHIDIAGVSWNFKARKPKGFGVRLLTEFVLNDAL", "assay": "P. falciparum M17LAP inhibitors, primary screen, biochemical, fluorogenic H-Leu-NHMec substrate, 1536-well (AID 1619)", "format": "functional"}}, "note": "Activity calls are given as the source filed them."}
{"smiles": "CCOC(=O)[C@]1(C(NC(=O)OC)c2ccccc2)CCCC1=O", "note": "(some centres not stated)", "values": [{"measurement": "AC50", "setting": "Cytochrome P450 3A4", "result": "2.51 µM (inconclusive)"}]}
{"smiles": "CCc1ccc(CN(C)C(=O)c2cc(COc3cccc4cnccc34)on2)cc1", "values": [{"measurement": "IC50", "setting": "Protein Wnt-3a", "result": "4.25 µM (active)"}, {"measurement": "AC50", "setting": "[1]", "result": "3.23 µM (active)"}, {"measurement": "AC50", "setting": "[2]", "result": "1.92 µM (active)"}, {"measurement": "AC50", "setting": "INS1", "result": "3.27 µM (active)"}, {"measurement": "IC50", "setting": "[3]", "result": "7.5 µM (active)"}, {"measurement": "AC50", "setting": "[4]", "result": "13.5 µM (active)"}]}
{"smiles": "CCn1c(S)nc2cc(S(=O)(=O)N3CCCCC3)ccc21", "values": [{"measurement": "IC50", "setting": "[5]", "result": "> 80 µM (inactive)"}]}
{"smiles": "COC(=O)c1cccc(C23CC4(C2)[C@H](CN(CC2CCCCC2)[C@@H]4c2ccccc2)C3c2ccc(C(F)(F)F)cc2)c1", "note": "(some centres not stated)", "values": [{"measurement": "AC50", "setting": "Cytochrome P450 3A4", "result": "15.8 µM (inconclusive)"}]}
{"smiles": "FC(F)(F)c1ccc(C2[C@H]3CN(Cc4ccc(-c5ccccc5)cc4)[C@H](c4ccccc4)C34CC2(c2cccnc2)C4)cc1", "note": "(some centres not stated)", "values": [{"measurement": "AC50", "setting": "Cytochrome P450 3A4", "result": "15.8 µM (inconclusive)"}]}
{"smiles": "COc1ccccc1-n1cnc2cc(NCc3cccs3)ccc21", "values": [{"measurement": "CC50", "setting": "[6]", "result": "> 40 µM (active)"}, {"measurement": "EC50", "setting": "[7]", "result": "2.87 µM (active)"}, {"measurement": "EC50", "setting": "[8]", "result": "4.55 µM (active)"}, {"measurement": "EC50", "setting": "BJ [9]", "result": "20.5 µM (active)"}, {"measurement": "EC50", "setting": "BJ [10]", "result": "8.39 µM (inconclusive)"}, {"measurement": "EC50", "setting": "BJ [11]", "result": "11 µM (inconclusive)"}, {"measurement": "EC50", "setting": "BJ [12]", "result": "0.248 µM (active)"}]}
{"smiles": "O=C(CNC(=O)/C(=C\\c1ccccc1)NC(=O)c1ccc(Br)cc1)OCc1ccccc1", "values": [{"measurement": "CC50", "setting": "[6]", "result": "> 40 µM (active)"}, {"measurement": "AC50", "setting": "Cytochrome P450 2D6", "result": "14.1 µM (inconclusive)"}]}
{"smiles": "COc1cc(C(=O)Oc2cccc(Nc3ncnc4ccccc34)c2)cc(OC)c1OC", "values": [{"measurement": "AC50", "setting": "[13]", "result": "14.1 µM (active)"}, {"measurement": "CC50", "setting": "[6]", "result": "35.2 µM (active)"}, {"measurement": "AC50", "setting": "[14]", "result": "> 52 µM (inactive)"}, {"measurement": "IC50", "setting": "[15]", "result": "> 100 µM (active)"}, {"measurement": "AC50", "setting": "[16]", "result": "17.7 µM (active)"}, {"measurement": "AC50", "setting": "[17]", "result": "> 52 µM (inactive)"}, {"measurement": "AC50", "setting": "[18]", "result": "51.4 µM (active)"}]}
{"smiles": "CCOc1cc(/C=C(/C#N)c2ccc(F)cc2)ccc1OCc1ccc(C(=O)O)o1", "values": [{"measurement": "IC50", "setting": "Leucine aminopeptidase", "result": "23.6 µM (active)"}]}
